The results in this text go back to patent US20210038730A1, “PEPTIDE NANOFIBERS” (UNIVERSITY OF PORTSMOUTH HIGHER EDUCATION CORPORATION, priority 2018, published 2021).

As usually defined, the koff is a measure of how fast the partners let go of each other.

Structures are written as SMILES. Values joined by “and” are separate entries in the source; they are usually repeats but may differ in a detail not shown here. Equal values may be shown once. Read-outs that look alike come from different tables or passages of the source.

Series [1] can be described thus: Critical aggregation concentration, thioflavin T assay. The note with it: PBS pH 7.4. It is filed as physicochemical. The method, then: Critical aggregation concentration (CAC) of TPGnRH was determined using pyrene ^1-4 and thioflavin T ^5, 6. The peptide solutions (3.5-700 μM) were prepared in phosphate-buffered saline (PBS, 0.01 M, pH 7.4) either by a dilution of a stock solution at 700 μM or solutions prepared at the required concentration. In the pyrene assay, pyrene was dissolved in methanol at 250 μM, dispersed into a black 96-well plate, and methanol was evaporated overnight. TPGnRH solutions were added to pyrene and incubated at 37° C. for 24 hours under stirring. Fluorescence spectra was recorded λex at 334 nm. For the thioflavin T assay, peptide solutions were added to freshly prepared thioflavin Tat 50 μM. All peptide samples were incubated during 5 minutes at room temperature and fluorescence was measured at λex at 450 nm and λem at 482 nm.
PAX:TPGnRH formulation at a molar ratio 1:7.36 was diluted in PBS (0.01 M, pH 7.4) from 22,000 to 7 μM of TPGnRH. Diluted formulations (20 μL) were added to 80 μL of Thioflavin T at 50 μM, incubated for 5 minutes at room temperature, and fluorescence was measured at λex 450 and λem 482 in a black 96-well plate using the Synergy H1 Microplate Reader (BioteK, Vermont, USA).

The target of series [2] is T1, GnRH-R expressed on glioblastoma cells (Homo sapiens, UniProt P30968).
T1 construct: GnRH peptides to the GnRH-R expressed on glioblastoma cells; endogenous in cells; host or cells: U-87 MG, UP-007, UP-029, SEBTA-023 glioblastoma cells (living)
T1 sequence (P30968 1-328): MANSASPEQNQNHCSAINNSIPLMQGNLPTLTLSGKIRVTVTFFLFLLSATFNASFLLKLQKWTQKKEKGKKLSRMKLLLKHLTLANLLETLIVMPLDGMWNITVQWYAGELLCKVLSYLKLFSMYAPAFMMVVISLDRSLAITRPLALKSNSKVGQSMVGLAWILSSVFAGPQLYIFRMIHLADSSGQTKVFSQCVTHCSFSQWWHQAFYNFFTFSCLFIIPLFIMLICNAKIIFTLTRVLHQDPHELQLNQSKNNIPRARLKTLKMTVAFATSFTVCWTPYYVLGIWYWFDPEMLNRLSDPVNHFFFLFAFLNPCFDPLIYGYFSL
The experiment in a line: Receptor binding by single molecule force spectroscopy. To be noted: for koff: read-out: Dissociation Rate (Koff). The method, then:
The binding of the GnRH analogues to GnRH-R was assessed using single molecule force spectroscopy (SMFS) and Topography and Recognition (TREC) imaging based on AFM. AFM tips were functionalised with Glu-GnRH, goserelin acetate and […] as a monomer and nanofibers using a previously described method ^9, 10. Silicon nitride (6-20 pN/nm spring constant, Bruker, Mass., USA) and magnetically coated […] tips (Keysight, Calif., USA) were used for SMFS and TREC studies, respectively. […] Subsequently, acetal groups were converted into aldehyde groups by immersing the tips in a 1% (w/v) citric acid solution for 10 minutes. […] Following an incubation of 2 hours, the free aldehyde groups were inactivated by ethanolamine for 10 minutes. AFM tips were washed with PBS three times and stored at 4° C. […] Loading rates were calculated by multiplying the pulling velocity (v) with the effective spring constant (keff). Spring constants were determined by the thermal-noise method. The force-distance curves were acquired using PicoView 1.12 (Agilent Technologies, Inc., California, USA) and analysed in Matlab 8.1 software (MathWorks, Massachusetts, USA). […] Amplitude-distance curves were collected on a glass coverslip to adjust the free oscillation amplitude, and to determine the optimal amplitude reduction value for driving the feedback loop during the imaging. Free amplitude of cantilever oscillation was 30 nm and the excitation frequency was set to 9 kHz.

Another series has as its target T2, GnRH-R on U-87 MG cells (Homo sapiens, UniProt P30968).
T2 construct: endogenous in cells; host or cells: U-87 MG
T2 sequence (P30968 1-328): T1 sequence (P30968 1-328)
The experiment in a line: SMFS blocking experiments with free GnRH-R ligands. The format is binding. The method, then: Blocking experiments were performed with different GnRH-R ligands (anti-GnRH-R antibody, Glu-GnRH, goserelin acetate, and TPGnRH). U-87 MG cells were analysed with tips functionalised with TPGnRH nanofibers and then the free ligands were added at a final concentration of 1 μg mL^−1 (anti-GnRH-R antibody) or 50 μg mL^−1 (Glu-GnRH, goserelin acetate and TPGnRH). U-87 MG cells treated with ligands were incubated for, at least, one hour at room temperature, and then the same cells were analysed with the same TPGnRH-functionalised tip at the same location in the cell.

Take `CCCCCCCCCCCCCCCC(=O)Oc1ccc(C[C@H](NC(=O)[C@H](CO)NC(=O)[C@H](Cc2c[nH]c3ccccc23)NC(=O)[C@H](Cc2c[nH]cn2)NC(=O)[C@@H](N)CCC(=O)O)C(=O)NCC(=O)N[C@@H](CC(C)C)C(=O)N[C@@H](CCCNC(=N)N)C(=O)N2CCC[C@H]2C(=O)NCC(N)=O)cc1` [TPGnRH, Tyrosine (O-Palmitoyl)-Glu-GnRH]: the “minimal CAC (self-assembly into long-axial nanofibers)” value in series [1] turned out to be 135 µM. The “Binding Force” value in series [2] (SEBTA-023) was 41.4 ± 3.85 pN; in series [2] (U-87 MG), 30.00 ± 5.57 pN; in series [2] (UP-007), 50.80 ± 2.88 pN; in series [2] (UP-029), 46.4 ± 9.45 pN. Besides, the “Binding Probability” value is 17.04±3.1% in series [2] (SEBTA-023); 13.2±0.9% and 13.2 ± 1.64% in series [2] (U-87 MG); 20.5±5.8% in series [2] (UP-007); 9.5±2.5% and 9.51 ± 2.53% in series [2] (UP-029). Besides, the koff in series [2] (SEBTA-023) amounted to 2.49 ± 0.12 s⁻¹; in series [2] (U-87 MG), 0.89 ± 0.1 s⁻¹; in series [2] (UP-007), 1.23 ± 0.13 s⁻¹; in series [2] (UP-029) it was 2.03 ± 4.14 s⁻¹. Also, the “Binding Probability of TPGnRH nanofiber tip to U-87 MG cells” value on GnRH-R on U-87 MG cells (after pre-incubation with the free ligand named as label (antibody 1 μg mL^−1, peptides 50 μg mL^−1)) came out at 4.5%; on GnRH-R on U-87 MG cells (before addition of the free ligand named as label (no pre-incubation)) it was 14.7%.
